Values joined by “and” are separate entries in the source; they are usually repeats but may differ in a detail not shown here. Equal entries are not always repeated. Where two headings read alike, the source gives them in different places.
Experiments:
Assay in all cases: cell-based
hNav1.7 = hNav1.7 (Homo sapiens, UniProt Q15858); assay type: cell-based; details: PatchXpress; * = at high concentrations compound would wash off slowly or not at all; read-out: PX hNav1.7 Tonic IC50
hNav1.4 [1] = target: T1, hNav1.4 (Homo sapiens, UniProt P35499)
T1 sequence (P35499 whole entry): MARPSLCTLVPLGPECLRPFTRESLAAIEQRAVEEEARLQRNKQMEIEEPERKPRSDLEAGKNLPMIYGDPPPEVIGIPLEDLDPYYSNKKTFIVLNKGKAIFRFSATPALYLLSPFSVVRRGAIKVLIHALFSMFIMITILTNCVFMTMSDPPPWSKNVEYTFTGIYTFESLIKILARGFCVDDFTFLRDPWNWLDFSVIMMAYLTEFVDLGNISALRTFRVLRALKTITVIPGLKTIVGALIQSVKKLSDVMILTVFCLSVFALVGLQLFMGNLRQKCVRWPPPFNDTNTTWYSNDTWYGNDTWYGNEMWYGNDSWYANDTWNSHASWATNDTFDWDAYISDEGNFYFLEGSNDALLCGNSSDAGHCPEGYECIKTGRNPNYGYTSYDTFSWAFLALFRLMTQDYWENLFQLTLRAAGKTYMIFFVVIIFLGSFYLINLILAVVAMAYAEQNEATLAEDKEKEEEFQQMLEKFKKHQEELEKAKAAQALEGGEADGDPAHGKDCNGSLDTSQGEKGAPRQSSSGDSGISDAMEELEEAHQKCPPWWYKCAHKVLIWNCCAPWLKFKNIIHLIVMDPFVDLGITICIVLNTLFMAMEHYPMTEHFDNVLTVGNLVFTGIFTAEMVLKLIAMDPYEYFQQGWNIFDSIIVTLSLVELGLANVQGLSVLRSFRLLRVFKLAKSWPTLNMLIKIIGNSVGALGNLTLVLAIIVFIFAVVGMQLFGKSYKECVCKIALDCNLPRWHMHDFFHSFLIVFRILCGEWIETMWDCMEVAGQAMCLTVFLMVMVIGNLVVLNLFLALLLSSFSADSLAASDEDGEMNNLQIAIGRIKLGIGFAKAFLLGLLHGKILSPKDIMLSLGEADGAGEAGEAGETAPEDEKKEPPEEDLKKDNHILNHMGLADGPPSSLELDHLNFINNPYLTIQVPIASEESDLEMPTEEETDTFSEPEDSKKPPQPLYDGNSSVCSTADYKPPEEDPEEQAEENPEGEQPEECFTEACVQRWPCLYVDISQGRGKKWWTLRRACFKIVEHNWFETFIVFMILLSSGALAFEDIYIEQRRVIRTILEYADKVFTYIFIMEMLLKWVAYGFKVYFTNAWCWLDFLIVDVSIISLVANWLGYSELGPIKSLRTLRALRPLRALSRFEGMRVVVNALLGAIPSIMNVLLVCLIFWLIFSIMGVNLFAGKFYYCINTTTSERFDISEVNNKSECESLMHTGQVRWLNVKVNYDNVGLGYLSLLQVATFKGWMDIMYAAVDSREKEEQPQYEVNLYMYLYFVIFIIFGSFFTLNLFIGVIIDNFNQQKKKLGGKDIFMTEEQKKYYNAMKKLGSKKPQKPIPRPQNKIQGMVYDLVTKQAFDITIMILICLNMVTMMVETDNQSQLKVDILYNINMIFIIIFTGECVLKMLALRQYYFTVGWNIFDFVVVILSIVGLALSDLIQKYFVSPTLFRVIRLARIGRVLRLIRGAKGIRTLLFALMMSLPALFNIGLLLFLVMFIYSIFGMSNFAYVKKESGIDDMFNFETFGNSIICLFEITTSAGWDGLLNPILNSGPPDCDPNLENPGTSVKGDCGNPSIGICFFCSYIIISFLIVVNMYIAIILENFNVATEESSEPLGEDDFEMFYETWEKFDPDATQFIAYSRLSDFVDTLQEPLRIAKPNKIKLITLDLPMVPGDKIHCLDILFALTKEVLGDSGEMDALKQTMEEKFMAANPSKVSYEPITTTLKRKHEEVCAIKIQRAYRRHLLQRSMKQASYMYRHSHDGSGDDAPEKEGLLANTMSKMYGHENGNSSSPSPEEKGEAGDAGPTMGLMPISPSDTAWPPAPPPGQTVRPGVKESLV

hNav1.4 [2] = target: T1, hNav1.4; details: ratio of IonWorks Quattro IC50 values

hNav1.7, sequence (Q15858 whole entry): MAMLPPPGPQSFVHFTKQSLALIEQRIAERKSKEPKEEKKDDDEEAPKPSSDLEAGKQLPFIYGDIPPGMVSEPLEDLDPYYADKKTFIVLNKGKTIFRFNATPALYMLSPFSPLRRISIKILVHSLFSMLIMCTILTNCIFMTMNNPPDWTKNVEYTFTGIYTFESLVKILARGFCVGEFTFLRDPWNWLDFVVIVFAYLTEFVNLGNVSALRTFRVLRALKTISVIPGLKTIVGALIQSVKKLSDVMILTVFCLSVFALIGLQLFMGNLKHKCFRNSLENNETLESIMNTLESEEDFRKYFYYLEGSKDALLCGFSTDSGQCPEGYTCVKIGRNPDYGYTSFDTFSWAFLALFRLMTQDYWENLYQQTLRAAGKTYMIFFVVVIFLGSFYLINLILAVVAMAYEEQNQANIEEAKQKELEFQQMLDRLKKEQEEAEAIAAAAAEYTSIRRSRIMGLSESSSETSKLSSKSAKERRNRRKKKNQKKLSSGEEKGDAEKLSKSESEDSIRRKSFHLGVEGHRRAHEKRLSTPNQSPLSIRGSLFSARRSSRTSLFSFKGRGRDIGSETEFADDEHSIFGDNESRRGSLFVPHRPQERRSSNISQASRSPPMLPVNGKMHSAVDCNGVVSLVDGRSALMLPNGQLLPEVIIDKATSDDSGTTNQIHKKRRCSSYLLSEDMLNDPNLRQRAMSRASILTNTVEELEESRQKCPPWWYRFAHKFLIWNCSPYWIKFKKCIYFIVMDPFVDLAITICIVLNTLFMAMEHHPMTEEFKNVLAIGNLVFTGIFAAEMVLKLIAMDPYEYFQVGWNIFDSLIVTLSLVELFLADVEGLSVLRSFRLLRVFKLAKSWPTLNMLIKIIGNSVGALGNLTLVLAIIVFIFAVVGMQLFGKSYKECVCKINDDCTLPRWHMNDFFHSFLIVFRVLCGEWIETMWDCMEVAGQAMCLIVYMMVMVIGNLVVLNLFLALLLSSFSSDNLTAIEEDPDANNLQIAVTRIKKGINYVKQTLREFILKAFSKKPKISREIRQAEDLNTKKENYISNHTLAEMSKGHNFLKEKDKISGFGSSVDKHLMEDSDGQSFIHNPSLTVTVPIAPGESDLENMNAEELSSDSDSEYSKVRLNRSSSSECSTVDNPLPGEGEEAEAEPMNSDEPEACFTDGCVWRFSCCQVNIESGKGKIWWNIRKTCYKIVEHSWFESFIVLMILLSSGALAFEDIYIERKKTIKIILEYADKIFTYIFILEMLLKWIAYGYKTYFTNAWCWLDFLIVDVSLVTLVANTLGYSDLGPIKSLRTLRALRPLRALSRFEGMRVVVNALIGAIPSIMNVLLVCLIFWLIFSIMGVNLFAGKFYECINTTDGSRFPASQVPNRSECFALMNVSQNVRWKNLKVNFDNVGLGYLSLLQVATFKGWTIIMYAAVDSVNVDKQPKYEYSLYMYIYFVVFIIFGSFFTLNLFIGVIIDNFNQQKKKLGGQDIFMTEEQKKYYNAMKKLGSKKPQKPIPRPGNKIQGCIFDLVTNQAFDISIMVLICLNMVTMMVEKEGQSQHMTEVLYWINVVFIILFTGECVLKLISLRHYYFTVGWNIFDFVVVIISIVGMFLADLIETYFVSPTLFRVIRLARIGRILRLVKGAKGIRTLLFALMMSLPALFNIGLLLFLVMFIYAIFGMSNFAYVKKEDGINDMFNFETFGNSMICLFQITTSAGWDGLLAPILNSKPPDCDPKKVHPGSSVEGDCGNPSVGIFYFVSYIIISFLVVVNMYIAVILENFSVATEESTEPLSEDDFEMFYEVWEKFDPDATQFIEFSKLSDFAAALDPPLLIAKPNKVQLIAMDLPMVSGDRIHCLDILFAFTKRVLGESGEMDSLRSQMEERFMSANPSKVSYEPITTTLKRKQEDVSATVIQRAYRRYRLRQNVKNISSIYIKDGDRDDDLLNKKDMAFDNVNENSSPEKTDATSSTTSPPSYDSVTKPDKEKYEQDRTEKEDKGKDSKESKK

`CCCC[C@@H]1NC(=O)[C@H](Cc2c[nH]c3ccccc23)NC(=O)[C@H](CCCCN)NC(=O)[C@H](CCC(N)=O)NC(=O)[C@@H](NC(=O)[C@H](Cc2ccc(O)cc2)NC(=O)[C@@H](N)C(C)C)CSSC[C@@H]2NC(=O)[C@@H]3CSSC[C@@H](C(=O)N[C@@H](CCCNC(=N)N)C(=O)N[C@@H](CCCCN)C(=O)N[C@H](C(=O)N[C@H](C(N)=O)[C@@H](C)CC)[C@@H](C)CC)NC(=O)[C@H](Cc4c[nH]c5ccccc45)NC(=O)[C@H](CC(C)C)NC(=O)[C@H](CCCCN)NC(=O)[C@H](CSSC[C@H](NC(=O)[C@H]([C@@H](C)O)NC(=O)[C@H](Cc4c[nH]c5ccccc45)NC1=O)C(=O)N[C@@H](CC(=O)O)C(=O)N[C@@H](CO)C(=O)N[C@@H](CCCCN)C(=O)N[C@@H](CCCNC(=N)N)C(=O)N[C@@H](C)C(=O)N3)NC(=O)[C@H](CCCNC(=N)N)NC(=O)[C@H](CC(C)C)NC(=O)CNC(=O)[C@H](CCC(=O)O)NC2=O` [compound 363] was tested, and the IC50 (hNav1.7) was 0.551 nM.

Compound `CC[C@H](C)[C@H](NC(=O)[C@@H](NC(=O)[C@H](CCCCN)NC(=O)[C@H](CCCNC(=N)N)NC(=O)[C@@H]1CSSC[C@@H]2NC(=O)[C@H](C)NC(=O)[C@H](CCCNC(=N)N)NC(=O)[C@H](CCCCN)NC(=O)[C@H](CO)NC(=O)[C@H](CC(=O)O)NC(=O)[C@@H]3CSSC[C@H](NC(=O)[C@H](CCC(=O)O)NC(=O)[C@H](CC(C)C)NC(=O)CNC(=O)[C@H](CCC(=O)O)NC(=O)[C@H](CSSC[C@H](NC(=O)[C@@H](N)Cc4ccc(O)cc4)C(=O)N[C@@H](CCC(N)=O)C(=O)N[C@@H](CCCCN)C(=O)N[C@@H](Cc4c[nH]c5ccccc45)C(=O)N[C@@H](CCSC)C(=O)N[C@@H](Cc4c[nH]c5ccccc45)C(=O)N[C@@H]([C@@H](C)O)C(=O)N3)NC2=O)C(=O)N[C@@H](CCCCN)C(=O)N[C@@H](CC(C)C)C(=O)N[C@@H](Cc2c[nH]c3ccccc23)C(=O)N1)[C@@H](C)CC)C(N)=O` [SEQ ID NO: 63, [Glu20]JzTx-V(1-29)] has an IC50 (hNav1.4 [1]; read-out: IC50 against hNav1.4 in the PX assay format) of 1250 nM.

`CCC[C@H](N)C(=O)N[C@@H](Cc1ccc(O)cc1)C(=O)N[C@H]1CSSC[C@@H]2NC(=O)[C@@H]3CSSC[C@@H](C(=O)N[C@@H](CCCNC(=N)N)C(=O)N[C@@H](CCCCN)C(=O)N[C@H](C(=O)N[C@H](C(N)=O)[C@@H](C)CC)[C@@H](C)CC)NC(=O)[C@H](Cc4c[nH]c5ccccc45)NC(=O)[C@H](CC(C)C)NC(=O)[C@H](CCCCN)NC(=O)[C@H](CSSC[C@H](NC(=O)[C@H]([C@@H](C)O)NC(=O)[C@H](Cc4c[nH]c5ccccc45)NC(=O)[C@H](CC(C)C)NC(=O)[C@H](Cc4c[nH]c5ccccc45)NC(=O)[C@H](CCCCN)NC(=O)[C@H](CCC(N)=O)NC1=O)C(=O)N[C@@H](CC(=O)O)C(=O)N[C@@H](CO)C(=O)N[C@@H](CCCCN)C(=O)N[C@@H](CCCNC(=N)N)C(=O)N[C@@H](CCCCNC(=O)[C@@H](N)Cc1cn(CCOCCOCCOCCOCCOCCOCCOCCOCCOCCOCCN)nn1)C(=O)N3)NC(=O)[C@H](CCCNC(=N)N)NC(=O)[C@H](CC(C)C)NC(=O)CNC(=O)[C@H](CCC(=O)O)NC2=O` [compound 446] was tested, and the Nav1.4/Nav1.7 (hNav1.4 [1]; ratio of PX IC50 values) was 11.

With `CC[C@H](NC(=O)[C@H](CCCCN)NC(=O)[C@H](CCCNC(=N)N)NC(=O)[C@@H]1CSSC[C@@H]2NC(=O)[C@H](C)NC(=O)[C@H](CCCNC(=N)N)NC(=O)[C@H](CCCCN)NC(=O)[C@H](CO)NC(=O)[C@H](CC(=O)O)NC(=O)[C@@H]3CSSC[C@H](NC(=O)[C@H](CCC(=O)O)NC(=O)[C@H](CC(C)C)NC(=O)CNC(=O)[C@H](CCC(=O)O)NC(=O)[C@H](CSSC[C@H](NC(=O)[C@@H](N)Cc4ccc(O)cc4)C(=O)N[C@@H](CCC(N)=O)C(=O)N[C@@H](CCCCN)C(=O)N[C@@H](Cc4c[nH]c5ccccc45)C(=O)N[C@@H](CCSC)C(=O)N[C@@H](Cc4c[nH]c5ccccc45)C(=O)N[C@@H]([C@@H](C)O)C(=O)N3)NC2=O)C(=O)N[C@@H](CCCCN)C(=O)N[C@@H](CC(C)C)C(=O)N[C@@H](Cc2c[nH]c3ccccc23)C(=O)N1)C(=O)N[C@H](C(N)=O)[C@@H](C)CC` [compound 130] the Nav1.4/Nav1.7 (hNav1.4 [2]) was 29 and 24.

`CCCC[C@@H]1NC(=O)[C@H](Cc2c[nH]c3ccccc23)NC(=O)[C@H](CCCCN)NC(=O)[C@H](CCC(N)=O)NC(=O)[C@@H](NC(=O)[C@@H](N)Cc2ccc(O)cc2)CSSC[C@@H]2NC(=O)[C@@H]3CSSC[C@@H](C(=O)N[C@@H](CCCNC(=N)N)C(=O)N[C@@H](CCCCN)C(=O)N[C@H](C(=O)N[C@@H](Cc4cn(CCCOCCOCCOCCOCCOCCOCCOCCOCCOCCOCCN)nn4)C(N)=O)[C@@H](C)CC)NC(=O)[C@H](Cc4c[nH]c5ccccc45)NC(=O)[C@H](CC(C)C)NC(=O)[C@H](CCCCN)NC(=O)[C@H](CSSC[C@H](NC(=O)[C@H]([C@@H](C)O)NC(=O)[C@H](Cc4c[nH]c5ccccc45)NC1=O)C(=O)N[C@@H](CC(=O)O)C(=O)N[C@@H](CO)C(=O)N[C@@H](CCCCN)C(=O)N[C@@H](CCCNC(=N)N)C(=O)N[C@@H](C)C(=O)N3)NC(=O)[C@H](CCCNC(=N)N)NC(=O)[C@H](CC(C)C)NC(=O)CNC(=O)[C@H](CCC(=O)O)NC2=O` [compound 270] showed a Nav1.4/Nav1.7 (hNav1.4 [2]) of 2.

`CC[C@@H]1NC(=O)[C@H](CC(C)C)NC(=O)CNC(=O)[C@H](CCC(=O)O)NC(=O)[C@@H]2CSSC[C@H](NC(=O)[C@@H](N)Cc3ccc(O)cc3)C(=O)N[C@@H](CCC(N)=O)C(=O)N[C@@H](CCCCN)C(=O)N[C@@H](Cc3c[nH]c4ccccc34)C(=O)N[C@@H](CCSC)C(=O)N[C@@H](Cc3c[nH]c4ccccc34)C(=O)N[C@@H]([C@@H](C)O)C(=O)N[C@H]3CSSC[C@H](NC1=O)C(=O)N[C@@H](CCCCN)C(=O)N[C@@H](CC(C)C)C(=O)N[C@@H](Cc1c[nH]c4ccccc14)C(=O)N[C@H](C(=O)N[C@@H](CCCNC(=N)N)C(=O)N[C@@H](CCCCN)C(=O)N[C@H](C(=O)N[C@H](C(N)=O)[C@@H](C)CC)[C@@H](C)CC)CSSC[C@H](NC(=O)[C@H](C)NC(=O)[C@H](CCCNC(=N)N)NC(=O)[C@H](CCCCN)NC(=O)[C@H](CO)NC(=O)[C@H](CC(=O)O)NC3=O)C(=O)N2` [compound 117] was tested, and the Nav1.4/Nav1.7 (hNav1.4 [2]) was 19.

`C#CC[C@@H]1NC(=O)[C@@H]2CSSC[C@H](NC(=O)[C@H](Cc3ccc(O)cc3)NC(=O)[C@@H](N)CC#N)C(=O)N[C@@H](CCC(N)=O)C(=O)N[C@@H](CCCCN)C(=O)N[C@@H](Cc3c[nH]c4ccccc34)C(=O)N[C@@H](CCCC)C(=O)N[C@@H](Cc3c[nH]c4ccccc34)C(=O)N[C@@H]([C@@H](C)O)C(=O)N[C@H]3CSSC[C@H](NC(=O)[C@H](CCC(=O)O)NC(=O)[C@H](CC(C)C)NC(=O)CNC1=O)C(=O)N[C@@H](CCCCN)C(=O)N[C@@H](CC(C)C)C(=O)N[C@@H](Cc1c[nH]c4ccccc14)C(=O)N[C@H](C(=O)N[C@@H](CCCNC(=N)N)C(=O)N[C@@H](CCCCN)C(=O)N[C@H](C(=O)N[C@H](C(N)=O)[C@@H](C)CC)[C@@H](C)CC)CSSC[C@H](NC(=O)[C@H](C)NC(=O)[C@H](CCCNC(=N)N)NC(=O)[C@H](CCCCN)NC(=O)[C@H](CO)NC(=O)[C@H](CC(=O)O)NC3=O)C(=O)N2` [compound 396] gave a Nav1.4/Nav1.7 (hNav1.4 [1]; ratio of PX tonic IC50 values) of 98.

Compound `C#CC[C@H](N)C(=O)NCCCC[C@@H]1NC(=O)[C@H](CCCNC(=N)N)NC(=O)[C@H](CCCCN)NC(=O)[C@H](CO)NC(=O)[C@H](CC(=O)O)NC(=O)[C@@H]2CSSC[C@@H]3NC(=O)[C@H](CCCNC(=N)N)NC(=O)[C@H](CC(C)C)NC(=O)CNC(=O)[C@H](CCC(=O)O)NC(=O)[C@H](CSSC[C@H](NC(=O)[C@H](Cc4ccc(O)cc4)NC(=O)[C@@H](N)CCC)C(=O)N[C@@H](CCC(N)=O)C(=O)N[C@@H](CCCCN)C(=O)N[C@@H](Cc4c[nH]c5ccccc45)C(=O)N[C@@H](CCCC)C(=O)N[C@@H](Cc4c[nH]c5ccccc45)C(=O)N[C@@H]([C@@H](C)O)C(=O)N2)NC(=O)[C@H](CSSC[C@@H](C(=O)N[C@@H](CCCNC(=N)N)C(=O)N[C@@H](CCCCN)C(=O)N[C@H](C(=O)N[C@H](C(N)=O)[C@@H](C)CC)[C@@H](C)CC)NC(=O)[C@H](Cc2c[nH]c4ccccc24)NC(=O)[C@H](CC(C)C)NC(=O)[C@H](CCCCN)NC3=O)NC1=O` [compound 431] has an IC50 (hNav1.4 [1]; PatchXpress, tonic block, read-out: PX hNav1.4 Tonic IC50) of 20.5 nM and a Nav1.4/Nav1.7 (hNav1.4 [1]; ratio of PX tonic IC50 values) of 13.

In the case of `CCCC[C@@H]1NC(=O)[C@H](Cc2c[nH]c3ccccc23)NC(=O)[C@H](CCCCN)NC(=O)[C@H](CCC(N)=O)NC(=O)[C@@H](NC(=O)[C@H](Cc2ccc(O)cc2)NC(=O)[C@@H](N)Cc2cn(CCCOCCOCCOCCOCCOCCOCCOCCOCCOCCOCCN)nn2)CSSC[C@@H]2NC(=O)[C@@H]3CSSC[C@@H](C(=O)N[C@@H](CCCNC(=N)N)C(=O)N[C@@H](CCCCN)C(=O)N[C@H](C(=O)N[C@H](C(N)=O)[C@@H](C)CC)[C@@H](C)CC)NC(=O)[C@H](Cc4c[nH]c5ccccc45)NC(=O)[C@H](CC(C)C)NC(=O)[C@H](CCCCN)NC(=O)[C@H](CSSC[C@H](NC(=O)[C@H]([C@@H](C)O)NC(=O)[C@H](Cc4c[nH]c5ccccc45)NC1=O)C(=O)N[C@@H](CC(=O)O)C(=O)N[C@@H](CO)C(=O)N[C@@H](CCCCN)C(=O)N[C@@H](CCCNC(=N)N)C(=O)N[C@@H](C)C(=O)N3)NC(=O)[C@H](CCCNC(=N)N)NC(=O)[C@H](CC(C)C)NC(=O)CNC(=O)[C@H](CCC(=O)O)NC2=O` [compound 247], the Nav1.4/Nav1.7 (hNav1.4 [1]; ratio of PX IC50 values) is reported as 1 and the Nav1.4/Nav1.7 (hNav1.4 [2]) is reported as 2.

`CCCC[C@@H]1NC(=O)[C@H](Cc2c[nH]c3ccccc23)NC(=O)[C@H](CCCCN)NC(=O)[C@H](CCC(N)=O)NC(=O)[C@@H](NC(=O)[C@@H](N)Cc2cn(CCCOCCOCCOCCOCCOCCOCCOCCOCCOCCOCCN)nn2)CSSC[C@@H]2NC(=O)[C@@H]3CSSC[C@@H](C(=O)N[C@@H](CCCNC(=N)N)C(=O)N[C@@H](CCCCN)C(=O)N[C@H](C(=O)N[C@H](C(N)=O)[C@@H](C)CC)[C@@H](C)CC)NC(=O)[C@H](Cc4c[nH]c5ccccc45)NC(=O)[C@H](CC(C)C)NC(=O)[C@H](CCCCN)NC(=O)[C@H](CSSC[C@H](NC(=O)[C@H]([C@@H](C)O)NC(=O)[C@H](Cc4c[nH]c5ccccc45)NC1=O)C(=O)N[C@@H](CC(=O)O)C(=O)N[C@@H](CO)C(=O)N[C@@H](CCCCN)C(=O)N[C@@H](CCCNC(=N)N)C(=O)N[C@@H](C)C(=O)N3)NC(=O)[C@H](CCCNC(=N)N)NC(=O)[C@H](CC(C)C)NC(=O)CNC(=O)[C@H](CCC(=O)O)NC2=O` [compound 248] was tested, and the Nav1.4/Nav1.7 (hNav1.4 [1]; ratio of PX IC50 values) was 15 and the Nav1.4/Nav1.7 (hNav1.4 [2]) was 4 and 3.

Reference: patent US9636418B2 (priority 2013, dated 2017)
